The record followed here is patent publication US9428507B2, “Compounds for the treatment of malaria” (The Broad Institute, Inc., priority 2013, dated 2016).

For this assay, the system named is Dd2 strain of P. falciparum. Nature of the assay: Activity against the Dd2 strain of P. falciparum (SYBR Green I, 72-h incubation). The assay is classed as cell-based. As to conditions: Plasmodium falciparum, DD2, 72 h, read-out: EC^50 Dd2. The procedure, abridged: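 Dd2 parasites at 1% parasitemia and 1.0% hematocrit in albumax II screening medium, 72 h at 37° C under 93% N2/4% CO2/3% O2; final DMSO 0.125%. Growth read as SYBR Green I fluorescence (485/530 nm) after lysis and 24 h staining. 20 μM mefloquine defined background, DMSO baseline.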

Consider `COc1ccc2c3c(n(C)c2c1)[C@H](CO)N(CC1CCOCC1)CC31CCN(Cc2nccs2)CC1` [Compound 112, (R)-(7′-methoxy-9′-methyl0-2′-((tetrahydro-2H-pyran-4-yl)methyl)-1-(thiazol-2-ylmethyl)-1′,2′,3′,9′-tetrahydrospiro [piperidine-4,4′-pyrido [3,4-b]indol]-1′-yl) methanol], for which the EC50 is 1100 nM.

For the compound `CCC(=O)N1CC2(CCN(C(=O)Nc3ccccc3F)CC2)c2c([nH]c3cc(OC)ccc23)[C@H]1CO` [Compound 113, (S)-N-(2-fluorophenyl)-1′-(hydroxymethyl)-7′-methoxy-2′-propionyl-1′,2′,3′,9′-tetrahydrospiro [piperidine-4,4′-pyrido[3,4-b]indole]-1-carboxamide], the EC50 turned out to be 1100 nM.

Regarding `COc1ccc2c3c(n(C)c2c1)[C@H](CO)N(C(=O)Nc1ccc(F)cc1)CC31CCN(S(=O)(=O)c2cccc(F)c2)CC1` [Compound 114, (R)-N-(4-fluorophenyl)-1-((3-fluorophenyl)sulfonyl)-1′-(hydroxymethyl)-7′-methoxy-9′-methyl-3′,9′-dihydrospiro [piperidine-4,4′-pyrido[3,4-b]indole]-2′(1′H)-carboxamide], the EC50 is 951 nM.

Consider `COc1ccc2c3c(n(C)c2c1)[C@@H](CO)N(C(=O)c1ccccc1)CC31CCN(C(=O)c2ccccc2)CC1` [Compound 115, (S)-(1′-(hydroxymethyl)-7′-methoxy-9′-methylspiro [piperidine-4,4′-pyrido[3,4-b]indol]-1,2′(1′ H,3′H,9′H)-diyl)bis(phenylmethanone)], for which the EC50 amounted to 1040 nM.

Regarding `CCC(=O)N1CCC2(CC1)CN(S(=O)(=O)c1ccccc1)[C@@H](CO)c1[nH]c3cc(OC)ccc3c12` [Compound 116, (R)-1-(1′-(hydroxymethyl)-7′-methoxy-2′-(phenylsulfonyl)-1′,2′,3′,9′-tetrahydrospiro [piperidine-4,4′-pyrido[3,4-b]indol]-1-yl) propan-1-one], the EC50 was found to be 1470 nM.

On to `COc1ccc2c3c(n(C)c2c1)[C@H](CO)N(C(=O)Nc1ccc(F)cc1)CC31CCN(Cc2cccnc2)CC1` [Compound 117, (R)-N-(4-fluorophenyl)-1′-(hydroxymethyl)-7′-methoxy-9′-methyl-1-(pyridin-3-ylmethyl)-3′,9′-dihydrospiro[piperidine-4,4′-pyrido[3,4-b]indole]-2′(1′H)-carboxamide], for which the EC50 is 1610 nM.

In the case of `CCC(=O)N1CCC2(CC1)CN(Cc1cc(F)ccc1F)[C@H](CO)c1[nH]c3cc(OC)ccc3c12` [Compound 118, (S)-1-(2′-(2,5-difluorobenzyl)-1′-(hydroxymethyl)-7′-methoxy-1′,2′,3′,9′-tetrahydrospiro [piperidine-4,4′-pyrido[3,4-b]indol]-1-yl) propan-1-one], the EC50 amounted to 1960 nM.

As to `COc1ccc(S(=O)(=O)N2CCC3(CC2)CN(Cc2ccncc2)[C@H](CO)c2[nH]c4cc(OC)ccc4c23)cc1` [Compound 119, (S)-(7′-methoxy-1-((4-methoxyphenyl)sulfonyl)-2′-(pyridin-4-ylmethyl)-1′,2′,3′,9′-tetrahydrospiro [piperidine-4,4′-pyrido[3,4-b]indol]-1′-yl) methanol], the EC50 was 1720 nM.

`CCCC(=O)N1CC2(C1)CN(S(=O)(=O)c1ccc(C)cc1)[C@@H](CO)c1[nH]c3cc(OC)ccc3c12` [Compound 120, (R)-1-(1′-(hydroxymethyl)-7′-methoxy-2′-tosyl-1′,2′,3′,9′-tetrahydrospiro[azetidine-3,4′-pyrido[3,4-b]indol]-1-yl)butan-1-one]: the EC50 came to 1650 nM.

Consider `COc1ccc2c3c([nH]c2c1)[C@@H](CO)N(C(=O)CN(C)C)CC31CCN(CC2CCCCC2)CC1` [Compound 121, (S)-1-(1-(cyclohexylmethyl)-1′-(hydroxymethyl)-7′-methoxyspiro [piperidine-4,4′-pyrido[3,4-b]indol]-2′(1′H,3′H,9′H)-yl)-2-(dimethylamino) ethanone], for which the EC50 stood at 360 nM.

As to `COc1ccc2c3c([nH]c2c1)[C@H](CO)N(Cc1ccccn1)CC31CCN(Cc2cccc(F)c2)CC1` [Compound 122], the EC50 came out at 421 nM.

In the case of `COc1ccc2c3c(n(C)c2c1)[C@H](CO)N(C(=O)Nc1ccc(F)cc1)CC31CN(C(=O)c2ccc3c(c2)OCO3)C1` [Compound 123, (R)-1-(benzo[d] [1,3]dioxole-5-carbonyl)-N-(4-fluorophenyl)-1′-(hydroxymethyl)-7′-methoxy-9′-methyl-3′,9′-dihydrospiro [azetidine-3,4′-pyrido[3,4-b]indole]-2′(1′H)-carboxamide], the EC50 was 683 nM.

Turning to `CCS(=O)(=O)N1CCC2(CC1)CN(S(=O)(=O)c1ccc(C)cc1)[C@@H](CO)c1[nH]c3cc(OC)ccc3c12` [Compound 124, (R)-(1-(ethylsulfony1)-7′-methoxy-2′-tosyl-1′,2′,3′,9′-tetrahydrospiro [piperidine-4,4′-pyrido[3,4-b]indol]-1′-yl)methanol], the EC50 came to 880 nM.

`COc1ccc2c3c(n(C)c2c1)[C@@H](CO)N(C(=O)C1CC1)CC31CCN(C(=O)Nc2cccc(F)c2)CC1` [Compound 125, (S)-2′-(cyclopropanecarbonyl)-N-(3-fluorophenyl)-1′-(hydroxymethyl)-7′-methoxy-9′-methyl-1′,2′,3′,9′-tetrahydrospiro [piperidine-4,4′-pyrido[3,4-b]indole]-1-carboxamide]: the EC50 came out at 343 nM.

Consider `COc1ccc(NC(=O)N2CC3(C2)CN(C(=O)C2CCC2)[C@H](CO)c2c3c3ccc(OC)cc3n2C)cc1` [Compound 126, (S)-2′-(cyclobutanecarbonyl)-1′-(hydroxymethyl)-7′-methoxy-N-(4-methoxyphenyl)-9′-methyl-1′,2′,3′,9′-tetrahydrospiro [azetidine-3,4′-pyrido[3,4-b]indole]-1-carboxamide], for which the EC50 is 437 nM.

Turning to `COc1cccc(CN2CC3(CCN(Cc4ccccn4)CC3)c3c([nH]c4cc(OC)ccc34)[C@@H]2CO)c1` [Compound 127, (R)-(7′-methoxy-2′-(3-methoxybenzyl)-1-(pyridin-2-ylmethyl)-1′,2′,3′,9′-tetrahydrospiro [pipendine-4,4′-pyrido[3,4-b]indol]-1′-yl) methanol], the EC50 is 1790 nM.

As for `COc1ccc2c3c([nH]c2c1)[C@H](CO)N(C(=O)Nc1ccc(F)cc1)CC31CCN(S(=O)(=O)c2cccc(F)c2)CC1` [Compound 128, (R)-N-(4-fluorophenyl)-1-((3-fluorophenyl)sulfonyl)-1′-(hydroxymethyl)-7′-methoxy-3′,9′-dihydrospiro [piperidine-4,4′-pyrido[3,4-b]indole]-2′(1′H)-carboxamide], the EC50 was 750 nM.

As to `COc1ccc2c3c(n(C)c2c1)[C@@H](CO)N(C(=O)c1ccc(F)cc1)CC31CCN(C(=O)Nc2ccc(F)cc2)CC1` [Compound 129], the EC50 was found to be 794 nM.

For `COc1ccc2c3c(n(C)c2c1)[C@@H](CO)NCC31CCN(Cc2ccc(-c3ccccn3)cc2)CC1` [Compound 130, (S)-(7′-methoxy-9′-methyl-1-(4-(pyridin-2-yl)benzyl)-1′,2′,3′,9′-tetrahydrospiro[piperidine-4,4′-pyrido[3,4-b]indol]-1′-yl)methanol], the EC50 was found to be 439 nM.

In the case of `COc1ccc2c3c(n(C)c2c1)[C@H](CO)N(C(=O)Nc1ccc(F)cc1)CC31CCN(C(=O)c2ccc3c(c2)OCO3)CC1` [Compound 131, (R)-1-(benzo[d] [1,3]dioxole-5-carbonyl)-N-(4-fluorophenyl)-1′-(hydroxymethyl)-7′-methoxy-9′-methyl-3′,9′-dihydrospiro [piperidine-4,4′-pyrido[3,4-b]indole]-2′(1′H)-carboxamide], the EC50 came to 892 nM.

Regarding `COc1ccc2c3c(n(C)c2c1)[C@@H](CO)N(Cc1ccc(Cl)cc1)CC31CCN(CC2CC2)CC1` [Compound 132, (S)-(2′-(4-chlorobenzyl)-1-(cyclopropylmethyl)-7′-methoxy-9′-methyl-1′,2′,3′,9′-tetrahydrospiro [piperidine-4,4′-pyrido[3,4-b]indol]-1′-yl) methanol], the EC50 turned out to be 1670 nM.

Regarding `COc1ccc2c3c([nH]c2c1)[C@@H](CO)N(Cc1ccncc1)CC31CCN(Cc2ccc(-c3ccccn3)cc2)CC1` [Compound 133, (S)-(7′-methoxy-1-(4-(pyridin-2-yl)benzy1)-2′-(pyridin-4-ylmethyl)-1′,2′,3′,9′-tetrahydrospiro [piperidine-4,4′-pyrido[3,4-b]indol]-1′-yl)methanol], the EC50 is 613 nM.

In the case of `COc1ccc2c3c([nH]c2c1)[C@H](CO)N(Cc1ccncc1)CC31CN(Cc2ccc(-c3ccccn3)cc2)C1` [Compound 134, (R)-(7′-methoxy-1-(4-(pyridin-2-yl)benzyl)-2′-(pyridin-4-ylmethyl)-1′,2′,3′,9′-tetrahydrospiro [azetidine-3,4′-pyrido[3,4-b]indol]-1′-yl)methanol], the EC50 worked out at 2970 nM.

As to `COc1ccc2c3c(n(C)c2c1)[C@H](CO)N(Cc1ccc(Cl)cc1)CC31CCN(CC2CC2)CC1` [Compound 135, (R)-(2′-(4-chlorobenzyl)-1-(cyclopropylmethyl)-7′-methoxy-9′-methyl-1′,2′,3′,9′-tetrahydrospiro [piperidine-4,4′-pyrido[3,4-b]indol]-1′-yl) methanol], the EC50 was 2230 nM.

Consider `COc1ccc2c3c([nH]c2c1)[C@H](CO)N(C(C)=O)CC31CCN(c2nc3ccccc3[nH]2)CC1` [Compound 136, (R)-1-(1-(1H-benzo[d]imidazol-2-yl)-1′-(hydroxymethyl)-7′-methoxyspiro[piperidine-4,4′-pyrido[3,4-b]indol]-2′(1′H,3′H,9′H)-yl) ethanone], for which the EC50 worked out at 2470 nM.

Take `COc1ccc2c3c([nH]c2c1)[C@H](CO)N(C(C)=O)CC31CCN(c2nc3ccccc3s2)CC1` [Compound 137, (R)-1-(1-(benzo[d]thiazol-2-yl)-1′-(hydroxymethyl)-7′-methoxyspiro [piperidine-4,4′-pyrido[3,4-b]indol]-2′(1′H,3′H,9′H)-yl) ethanone]: the EC50 is 5760 nM.
